# Laboratory results taken from patent US20040038369A1, “Airway-specific trypsin-like enzymes and method of using the same” (priority 2000, published 2004).
# Test system: NCI-H292 cells
# Assay: AB-PAS staining of mucus glycoprotein in NCI-H292 cells
# Type: cell-based, human
# Conditions: FIG. 1 and 2
# Method: (§1) NCI-H292 cells (human pulmonary mucoepidermoid tumor cell strain, purchased from ATCC) were suspended in 10% FCS (Fetal Calf Serum)-containing RPMI-1640 (produced by Gibco Corp.), sowed on a Lab-Tek 8 well chamber slide (produced by Nunc Corp.) in a density of 6.0×10^4 cells/cm^2, cultured for 72 hours, subjected to the replacement of the culture solution by RPMI-1640 containing 0.1% of BSA, and further cultured for 24 hours.
# On the day of the treatment, the culture solution of each well was replaced by RPMI-1640 (containing 0.1% BSA) containing EGF (5 ng/mL, produced by Becton Dickinson Corp.), HB-EGF (5 ng/mL, produced by R & D Corp.), TGF-α (5 ng/mL, produced by Peprotech Corp.), or PBS to start the treatment. Then, the cells were incubated at 37° C. for 24 hours.
# After the prescribed 24 hours treatment, the culture supernatant was removed. The residue was once washed with PBS, mixed with 4% paraformaldehyde/PBS, and then allowed to stand at room temperature for one hour to immobilize the cells. The immobilized cells were twice washed with Milli Q water and then stained with AB-PAS. The staining was carried out according to a book (“All of new dyeing methods” p136-150 (Iyaku Shuppansha)). After staining, the cells were sequentially immersed in 70, 80, and 100% ethanol for five minutes, respectively, to remove water, sealed in an Aquatex (produced by Merck Corp.), and then subjected to the observation of the staining image with an optical microscope. From the results, it was clarified that all of HAST, TGF-α, EGF, and HB-EGF promoted the production of the mucus glycoprotein.
# as §1, with “(purchased” for “(human pulmonary mucoepidermoid tumor cell strain, purchased”, “FCS-containing” for “FCS (Fetal Calf Serum)-containing”, “hours. […]” for “hours.”
substance,measurement,value
HAST: human airway-specific trypsin-like enzyme; propeptide moiety bound to trypsin-like protein moiety via a disulfide bond,production of the mucus glycoprotein,promoted
